Measurements from ChEMBL document CHEMBL1201862, “PubChem BioAssay data set” (2004).
Several values for one entry are separate records, joined by “and”; a condition that tells them apart may be missing. Identical values can stand only once. Activity calls are given as the source filed them.

How the values were obtained:
Cytochrome P450 2C19 = Cytochrome P450 2C19 (Homo sapiens, UniProt P33261); experiment: qHTS Assay for Inhibitors and Substrates of Cytochrome P450 2C19. [Related pubchem assays: 410 ]; format: ADME; details: read-out: Potency
[1] = Luminescence Cell-Based Dose Confirmation HTS to Identify Activators of 5'UTR Stem-Loop Driven Alpha-Synuclein mRNA Translation in H4 Neuroglioblastoma Cells. [Related pubchem assays: 1829 (Project Summary), 1814 (Primary HTS)]; format: functional
[2] = Luminescence Cell-Based Dose Response HTS to Identify Activators of Luciferase Translation or Activity in H4 […] Cells. [Related pubchem assays: 1829 (Project Summary), 1814 (Primary HTS)]; format: functional
H4 = experiment: Luminescence Cell-Based Dose Response HTS to Identify Activators of 5'UTR Stem-Loop Driven Prion Protein mRNA Translation in H4 Neuroglioblastoma Cells. [Related pubchem assays: 1829 (Project Summary), 1814 (Primary HTS)]; format: functional; details: Homo sapiens
Estrogen receptor = target: T1, Estrogen receptor (Homo sapiens, UniProt P03372); experiment: ERα coactivator recruitment enhancers – biochemical, TR-FRET, ERα LBD, dose response (AID 737)
T1 sequence (P03372 whole entry): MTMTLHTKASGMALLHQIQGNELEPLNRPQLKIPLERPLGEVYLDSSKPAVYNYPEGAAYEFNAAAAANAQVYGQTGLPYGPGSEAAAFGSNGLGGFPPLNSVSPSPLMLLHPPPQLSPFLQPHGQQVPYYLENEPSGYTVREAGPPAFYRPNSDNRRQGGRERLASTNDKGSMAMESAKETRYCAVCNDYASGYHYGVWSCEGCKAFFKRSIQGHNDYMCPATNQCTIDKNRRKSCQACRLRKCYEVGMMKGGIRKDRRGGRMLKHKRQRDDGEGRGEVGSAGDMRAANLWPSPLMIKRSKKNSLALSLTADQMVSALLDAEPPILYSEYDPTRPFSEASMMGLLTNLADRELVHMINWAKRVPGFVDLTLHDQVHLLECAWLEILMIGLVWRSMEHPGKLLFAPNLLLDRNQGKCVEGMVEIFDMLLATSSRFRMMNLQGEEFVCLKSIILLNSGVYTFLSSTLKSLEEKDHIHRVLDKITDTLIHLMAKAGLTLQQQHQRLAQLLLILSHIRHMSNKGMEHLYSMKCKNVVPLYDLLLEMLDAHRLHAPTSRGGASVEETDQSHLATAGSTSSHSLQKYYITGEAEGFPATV

[3] = target: DNA dC->dU-editing enzyme APOBEC-3A (Homo sapiens, UniProt P31941); experiment: Dose Response confirmation of small molecule APOBEC3A DNA Deaminase Inhibitors via a fluorescence-based single-stranded DNA deaminase assay. [Related pubchem assays (depositor defined):AID493011, AID493024]; format: functional
[4] = target: DNA dC->dU-editing enzyme APOBEC-3G (Homo sapiens, UniProt Q9HC16); format: functional;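 further: Dose-response counterscreen measuring inhibition of APOBEC3G DNA deaminase activity, run while confirming APOBEC3A inhibitors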
[5] = target: E3 ubiquitin-protein ligase Mdm2 (Homo sapiens, UniProt Q00987); experiment: MDM2-luc reporter signal enhancers, multi-concentration potency testing, MDM2 ubiquitin-protein ligase inhibitor program, whole-cell format, luminescence detection, 384-well microplate (AID 1394); format: functional;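 further: MDM2 E3 inhibitors raise luminescence so EC50 is for signal enhancement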
[6] = antiviral protection against BTV-induced cell death – arbovirus, BSR cells, confirmation (AID 1250); format: functional;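 further: protection from viral cytopathic effect measured as cell viability by ATP luminescence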
Cytochrome P450 3A4 = Cytochrome P450 3A4 (Homo sapiens, UniProt P08684);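 further: CYP3A4 tested as one member of a cytochrome P450 panel screen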
Cytochrome P450 2D6 = Cytochrome P450 2D6 (Homo sapiens, UniProt P10635); experiment: qHTS Assay for Inhibitors and Substrates of Cytochrome P450 2D6. [Related pubchem assays: 410 ]; format: ADME; details: read-out: Potency
[7] = target: Photoreceptor-specific nuclear receptor (Homo sapiens, UniProt Q9Y5X4); format: functional;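 further: potency for compounds that break the NR2E3 corepressor complex and count as activators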
[8] = target: Peroxisome proliferator-activated receptor gamma/Nuclear receptor corepressor 2 (Homo sapiens, UniProt P37231+Q9Y618); format: functional
[9] = target: T2, Aryl hydrocarbon receptor (Homo sapiens, UniProt P35869); experiment: Luminescence-based cell-based high throughput dose response assay for activators of the Aryl Hydrocarbon Receptor (AHR). [Related pubchem assays: 2796 (Primary screen (AHR activators in singlicate)), 2845 (Confirmation screen (AHR activators in triplicate)), 434939 (Counterscreen (PXR activators in triplicate)), 2804 (Summary (AHR activators))]; format: ADME
T2 sequence (P35869 whole entry): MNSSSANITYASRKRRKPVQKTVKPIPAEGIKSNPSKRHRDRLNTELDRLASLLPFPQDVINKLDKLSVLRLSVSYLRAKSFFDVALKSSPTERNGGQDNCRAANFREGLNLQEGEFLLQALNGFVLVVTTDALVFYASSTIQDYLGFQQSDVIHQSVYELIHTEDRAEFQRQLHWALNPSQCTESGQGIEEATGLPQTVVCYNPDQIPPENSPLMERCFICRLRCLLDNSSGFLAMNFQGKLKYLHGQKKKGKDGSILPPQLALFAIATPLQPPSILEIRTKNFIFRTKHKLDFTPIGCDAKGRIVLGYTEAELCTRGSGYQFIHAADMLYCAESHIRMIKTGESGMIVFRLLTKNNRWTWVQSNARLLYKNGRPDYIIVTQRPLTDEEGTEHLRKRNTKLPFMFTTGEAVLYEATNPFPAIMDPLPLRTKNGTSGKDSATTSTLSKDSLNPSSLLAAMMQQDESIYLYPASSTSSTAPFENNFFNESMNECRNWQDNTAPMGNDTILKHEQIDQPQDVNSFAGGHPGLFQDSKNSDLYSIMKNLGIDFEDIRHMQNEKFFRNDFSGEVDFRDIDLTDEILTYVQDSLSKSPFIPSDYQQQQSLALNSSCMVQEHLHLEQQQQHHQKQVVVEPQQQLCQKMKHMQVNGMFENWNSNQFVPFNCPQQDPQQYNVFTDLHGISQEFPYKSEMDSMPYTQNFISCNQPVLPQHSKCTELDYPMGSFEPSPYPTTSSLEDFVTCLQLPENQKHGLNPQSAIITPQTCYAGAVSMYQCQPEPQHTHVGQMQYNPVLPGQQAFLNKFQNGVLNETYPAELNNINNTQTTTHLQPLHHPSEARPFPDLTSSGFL

Cytochrome P450 2C19, sequence (P33261 whole entry): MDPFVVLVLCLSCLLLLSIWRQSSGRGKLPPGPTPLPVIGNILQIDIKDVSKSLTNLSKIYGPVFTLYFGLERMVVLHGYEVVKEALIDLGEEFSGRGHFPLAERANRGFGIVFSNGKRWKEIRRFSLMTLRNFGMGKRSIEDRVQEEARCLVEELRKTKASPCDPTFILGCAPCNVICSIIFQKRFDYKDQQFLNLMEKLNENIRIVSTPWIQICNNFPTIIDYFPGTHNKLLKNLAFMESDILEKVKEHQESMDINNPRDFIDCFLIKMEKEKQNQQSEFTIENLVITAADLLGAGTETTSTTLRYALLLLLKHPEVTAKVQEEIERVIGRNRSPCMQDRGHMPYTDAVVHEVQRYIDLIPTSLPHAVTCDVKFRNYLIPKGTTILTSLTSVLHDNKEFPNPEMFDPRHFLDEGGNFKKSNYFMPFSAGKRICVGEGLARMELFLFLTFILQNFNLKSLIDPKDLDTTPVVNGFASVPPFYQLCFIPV
Cytochrome P450 2D6, sequence (P10635 whole entry): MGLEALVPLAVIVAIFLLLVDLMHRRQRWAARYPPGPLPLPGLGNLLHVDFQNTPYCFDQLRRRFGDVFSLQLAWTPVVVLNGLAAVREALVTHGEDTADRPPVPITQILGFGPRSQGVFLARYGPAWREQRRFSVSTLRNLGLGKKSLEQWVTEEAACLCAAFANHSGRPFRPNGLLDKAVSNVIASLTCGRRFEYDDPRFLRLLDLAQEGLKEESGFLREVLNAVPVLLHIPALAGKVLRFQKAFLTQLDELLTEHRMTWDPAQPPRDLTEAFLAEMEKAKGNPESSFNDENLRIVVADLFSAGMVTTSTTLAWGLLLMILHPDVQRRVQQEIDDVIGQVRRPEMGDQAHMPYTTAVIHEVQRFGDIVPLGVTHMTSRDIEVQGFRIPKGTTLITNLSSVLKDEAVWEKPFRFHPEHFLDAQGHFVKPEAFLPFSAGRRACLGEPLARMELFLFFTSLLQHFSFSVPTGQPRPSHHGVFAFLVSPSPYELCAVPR
DNA dC->dU-editing enzyme APOBEC-3A, sequence (P31941 whole entry): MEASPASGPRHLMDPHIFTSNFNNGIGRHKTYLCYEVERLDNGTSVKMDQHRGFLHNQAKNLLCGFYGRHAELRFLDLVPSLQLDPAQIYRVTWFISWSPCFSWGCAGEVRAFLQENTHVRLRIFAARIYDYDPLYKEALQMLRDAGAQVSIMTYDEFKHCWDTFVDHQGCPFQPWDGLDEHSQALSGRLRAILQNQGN
Cytochrome P450 3A4, sequence (P08684 whole entry): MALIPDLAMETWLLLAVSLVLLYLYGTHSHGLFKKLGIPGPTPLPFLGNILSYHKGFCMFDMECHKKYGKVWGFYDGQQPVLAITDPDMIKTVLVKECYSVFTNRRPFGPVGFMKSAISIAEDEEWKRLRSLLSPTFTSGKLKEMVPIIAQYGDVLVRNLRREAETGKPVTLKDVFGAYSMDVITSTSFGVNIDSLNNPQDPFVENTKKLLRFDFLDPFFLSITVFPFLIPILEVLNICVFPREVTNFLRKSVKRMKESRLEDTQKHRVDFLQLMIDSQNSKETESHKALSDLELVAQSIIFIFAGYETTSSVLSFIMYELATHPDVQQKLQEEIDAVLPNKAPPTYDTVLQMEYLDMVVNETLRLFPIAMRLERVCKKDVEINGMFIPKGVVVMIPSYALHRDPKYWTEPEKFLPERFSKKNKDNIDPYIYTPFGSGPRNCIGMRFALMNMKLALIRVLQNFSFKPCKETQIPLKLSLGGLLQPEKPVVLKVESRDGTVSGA
Peroxisome proliferator-activated receptor gamma/Nuclear receptor corepressor 2, sequence (P37231 whole entry): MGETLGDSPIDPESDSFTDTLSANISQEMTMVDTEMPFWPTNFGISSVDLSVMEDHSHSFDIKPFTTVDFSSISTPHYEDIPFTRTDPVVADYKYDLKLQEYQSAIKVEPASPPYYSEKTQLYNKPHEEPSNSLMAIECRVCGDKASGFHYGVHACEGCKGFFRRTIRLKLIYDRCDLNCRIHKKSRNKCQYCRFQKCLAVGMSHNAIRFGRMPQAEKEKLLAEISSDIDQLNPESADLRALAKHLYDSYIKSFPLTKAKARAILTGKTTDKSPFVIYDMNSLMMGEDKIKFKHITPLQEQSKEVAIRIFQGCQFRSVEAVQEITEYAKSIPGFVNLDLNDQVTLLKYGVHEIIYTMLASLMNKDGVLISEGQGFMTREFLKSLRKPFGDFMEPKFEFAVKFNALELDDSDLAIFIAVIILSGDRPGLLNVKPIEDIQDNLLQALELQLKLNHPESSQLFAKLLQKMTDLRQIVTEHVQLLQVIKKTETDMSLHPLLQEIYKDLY
Peroxisome proliferator-activated receptor gamma/Nuclear receptor corepressor 2, sequence (Q9Y618 whole entry): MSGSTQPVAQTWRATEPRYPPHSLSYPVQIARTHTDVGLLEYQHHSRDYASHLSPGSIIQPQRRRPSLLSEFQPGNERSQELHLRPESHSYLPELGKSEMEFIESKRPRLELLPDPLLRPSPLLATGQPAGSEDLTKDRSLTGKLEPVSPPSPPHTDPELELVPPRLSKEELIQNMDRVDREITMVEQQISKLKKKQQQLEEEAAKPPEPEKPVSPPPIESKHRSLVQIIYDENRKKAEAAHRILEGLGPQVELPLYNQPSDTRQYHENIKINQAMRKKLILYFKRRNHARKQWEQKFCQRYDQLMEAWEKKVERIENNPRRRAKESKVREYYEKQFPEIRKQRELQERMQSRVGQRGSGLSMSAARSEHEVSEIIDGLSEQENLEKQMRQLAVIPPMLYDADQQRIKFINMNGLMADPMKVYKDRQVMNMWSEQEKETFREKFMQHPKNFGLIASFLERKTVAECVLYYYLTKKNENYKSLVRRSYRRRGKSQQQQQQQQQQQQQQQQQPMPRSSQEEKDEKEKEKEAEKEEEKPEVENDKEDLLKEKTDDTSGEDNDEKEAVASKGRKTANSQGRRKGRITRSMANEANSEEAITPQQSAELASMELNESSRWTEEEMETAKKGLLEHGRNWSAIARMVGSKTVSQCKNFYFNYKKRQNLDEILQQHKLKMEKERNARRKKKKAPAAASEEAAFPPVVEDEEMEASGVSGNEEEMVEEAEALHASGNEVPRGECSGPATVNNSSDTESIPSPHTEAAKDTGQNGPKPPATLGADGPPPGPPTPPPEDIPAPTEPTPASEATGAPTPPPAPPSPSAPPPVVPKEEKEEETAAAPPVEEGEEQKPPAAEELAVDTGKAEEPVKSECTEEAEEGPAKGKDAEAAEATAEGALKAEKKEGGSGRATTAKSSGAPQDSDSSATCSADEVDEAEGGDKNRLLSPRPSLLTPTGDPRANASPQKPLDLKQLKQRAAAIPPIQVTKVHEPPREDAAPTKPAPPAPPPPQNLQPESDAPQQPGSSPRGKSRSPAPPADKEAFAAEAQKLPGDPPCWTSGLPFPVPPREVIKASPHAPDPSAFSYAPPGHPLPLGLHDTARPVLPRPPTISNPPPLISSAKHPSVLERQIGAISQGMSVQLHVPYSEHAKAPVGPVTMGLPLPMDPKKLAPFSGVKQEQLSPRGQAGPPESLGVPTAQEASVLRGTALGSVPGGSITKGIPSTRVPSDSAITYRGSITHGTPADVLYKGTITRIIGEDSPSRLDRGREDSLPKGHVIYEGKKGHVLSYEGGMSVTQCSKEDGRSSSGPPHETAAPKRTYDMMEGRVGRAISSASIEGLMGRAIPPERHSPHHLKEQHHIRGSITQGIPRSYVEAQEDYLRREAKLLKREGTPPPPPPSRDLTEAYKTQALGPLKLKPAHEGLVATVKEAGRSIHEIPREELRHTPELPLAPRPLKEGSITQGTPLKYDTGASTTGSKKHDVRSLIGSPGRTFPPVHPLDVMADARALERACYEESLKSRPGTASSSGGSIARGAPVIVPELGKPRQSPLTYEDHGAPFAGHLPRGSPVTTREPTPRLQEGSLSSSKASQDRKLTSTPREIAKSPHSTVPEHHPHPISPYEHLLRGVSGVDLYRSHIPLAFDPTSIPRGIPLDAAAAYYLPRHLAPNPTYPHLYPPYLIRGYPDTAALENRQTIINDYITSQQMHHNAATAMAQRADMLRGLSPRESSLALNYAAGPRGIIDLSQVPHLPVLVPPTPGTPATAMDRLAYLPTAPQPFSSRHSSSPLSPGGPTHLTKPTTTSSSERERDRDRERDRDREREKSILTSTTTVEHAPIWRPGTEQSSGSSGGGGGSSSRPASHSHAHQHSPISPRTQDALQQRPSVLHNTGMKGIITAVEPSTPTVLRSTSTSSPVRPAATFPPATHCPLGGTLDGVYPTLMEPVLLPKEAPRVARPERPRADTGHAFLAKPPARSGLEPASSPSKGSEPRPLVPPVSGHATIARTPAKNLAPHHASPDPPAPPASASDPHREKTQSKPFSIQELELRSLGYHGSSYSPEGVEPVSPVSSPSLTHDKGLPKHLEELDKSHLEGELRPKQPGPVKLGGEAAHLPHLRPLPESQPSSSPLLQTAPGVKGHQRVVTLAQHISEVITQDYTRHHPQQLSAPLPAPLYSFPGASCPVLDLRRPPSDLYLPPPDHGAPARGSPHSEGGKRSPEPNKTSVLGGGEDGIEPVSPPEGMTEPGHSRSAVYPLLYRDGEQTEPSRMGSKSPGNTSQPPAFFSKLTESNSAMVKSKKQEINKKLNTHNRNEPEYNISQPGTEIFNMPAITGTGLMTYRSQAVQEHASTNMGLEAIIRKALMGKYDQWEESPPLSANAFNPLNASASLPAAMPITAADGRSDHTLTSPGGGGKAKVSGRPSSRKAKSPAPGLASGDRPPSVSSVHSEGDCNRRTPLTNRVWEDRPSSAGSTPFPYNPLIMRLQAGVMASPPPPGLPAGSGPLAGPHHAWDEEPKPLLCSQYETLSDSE

In the case of `CC1C=CCCOC1c1ccccc1` (stereo unspecified), the AC50 (Cytochrome P450 2C19) was 3.98 µM (inconclusive).

In the case of `CCn1c(SCC(=O)Nc2cccc(F)c2)nnc1-c1cc2cc(Br)ccc2o1`, the EC50 [1] was > 120 µM (not active), the EC50 [2] was 10.8 µM (active) and the EC50 (H4) was > 120 µM (not active). The EC50 (Estrogen receptor) was 11.1 µM (active), the IC50 [3] was 2.82 µM (active) and the IC50 [4] was 5.3 µM (active).

For `CCOC(=O)C1C(c2ccccc2)N(C)OC1(O)C(F)(F)F` (stereo unspecified), the EC50 [5] was 9.58 µM (not active).

With `C=CCSc1nc(O)c2sc3nc(C)cc(C)c3c2n1` the IC50 [6] was 25.4 µM (active) and the AC50 (Cytochrome P450 3A4) was 11.2 µM (inconclusive).

In the case of `CCCCC1CN2C(CCC(C)C2c2ccc(Br)cc2)C(=O)O1` (stereo unspecified), the AC50 (Cytochrome P450 2C19) was 3.16 µM (inconclusive) and 7.94 µM (inconclusive), the AC50 (Cytochrome P450 2D6; human) was 3.16 µM (inconclusive) and the AC50 (Cytochrome P450 2D6) was 3.16 µM (inconclusive).

For `COCCCN1C(=O)C(O)=C(C(=O)c2ccc(C)o2)C1c1cccc(Br)c1` (stereo unspecified), the IC50 [7] was > 39.8 µM (not active) and the IC50 [8] was 11.1 µM (not active).

In the case of `Cc1nnc(N2C(=O)c3cccc4c([N+](=O)[O-])ccc(c34)C2=O)s1`, the EC50 [9] was 0.733 µM (active).
